Data taken from US20250084078A1, “FUSED RING-SUBSTITUTED SIX-MEMBERED HETEROCYCLIC COMPOUND, AND PREPARATION METHOD THEREFOR AND USE THEREOF” (GENFLEFT THERAPEUTICS (SHANGHAI) INC., priority 2022, published 2025).
Structures can show the parent of a compound that is named as a salt.

How the values were obtained:
HPK1 [1] = target: HPK1 (Homo sapiens, UniProt Q92918); test: SLP76 phosphorylation assay (intracellular HPK1 inhibitory activity, p-SLP76 S376 ELISA in Jurkat cells); details: Clone E6-1 cells, 1 h compound pre-incubation, anti-CD3 beads stimulation 20 min, Phospho-SLP-76 (Ser376) ELISA
Target sequence in this assay (Q92918 whole entry): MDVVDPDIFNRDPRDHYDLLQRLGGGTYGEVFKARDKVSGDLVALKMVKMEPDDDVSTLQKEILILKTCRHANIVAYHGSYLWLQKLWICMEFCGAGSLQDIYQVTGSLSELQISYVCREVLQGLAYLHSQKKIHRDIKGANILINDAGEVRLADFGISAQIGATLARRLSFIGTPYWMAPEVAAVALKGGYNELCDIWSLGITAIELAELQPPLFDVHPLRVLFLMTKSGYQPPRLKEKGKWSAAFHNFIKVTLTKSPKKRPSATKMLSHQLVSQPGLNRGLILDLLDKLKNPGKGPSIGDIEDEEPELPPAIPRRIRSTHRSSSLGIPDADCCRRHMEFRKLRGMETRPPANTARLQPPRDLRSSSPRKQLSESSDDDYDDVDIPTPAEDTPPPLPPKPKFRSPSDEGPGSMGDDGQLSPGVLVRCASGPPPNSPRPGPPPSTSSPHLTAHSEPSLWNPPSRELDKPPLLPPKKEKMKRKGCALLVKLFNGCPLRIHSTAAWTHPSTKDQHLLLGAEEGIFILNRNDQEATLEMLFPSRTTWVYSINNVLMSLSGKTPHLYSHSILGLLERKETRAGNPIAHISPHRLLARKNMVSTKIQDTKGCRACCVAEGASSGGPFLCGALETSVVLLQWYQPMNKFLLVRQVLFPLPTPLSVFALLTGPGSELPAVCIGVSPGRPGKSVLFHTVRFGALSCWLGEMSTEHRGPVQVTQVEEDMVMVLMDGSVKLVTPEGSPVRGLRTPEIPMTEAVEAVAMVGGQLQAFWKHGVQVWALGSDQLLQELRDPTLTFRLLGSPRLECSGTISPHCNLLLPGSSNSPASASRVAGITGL
Method: SLP76 Phosphorylation Assay
Intracellular HPK1 inhibitory activity was tested by the detection of SLP76 phosphorylation at S376.
(§1) Preparation of 1000× drug stock plate: a 1000× compound stock plate was prepared. […] The compound stock plate was sealed with a sealing film and stored in a −20° C. refrigerator for later use.
Preparation of Beads wash buffer: 0.1 mL FBS and 0.4 mL 0.5 M EDTA (with a final concentration of 2 mM) were added to 100 mL PBS and stored in a 4° C. refrigerator for later use.
100× Protease Inhibitor Cocktail in 1/20 total volume was added and stored on wet ice for later use. The buffer was ready to use.
Cell inoculation and dosing: the 1000× drug stock plate was taken and melted at room temperature in the dark. […] Jurkat cells in the logarithmic growth phase were selected and collected. […] The cells were inoculated into a 96-well plate (the volume was 90 μL per well), and a blank control well (without cells inoculation, and in which 110 μL of medium was added) was set. 10 μL of a drug-containing culture medium (10×) was transferred from the 10× drug intermediate plate into the 96-well cell plate (with a final concentration of 0.1% DMSO), and set a DMSO control group (in which 0.1% DMSO was added to the treated cells), a stimulated control group (in which 10 μL of culture medium was added to treat cells) and an unstimulated group (in which 10 μL of culture medium was added to treat cells). The wells were duplicated, gently patted, mixed, and then placed into a 5% CO2 incubator at 37° C. for 1 h.
Anti-CD3 beads stimulation: Dynabeads anti-human CD3 was taken, shaken, and mixed for 60 s. The required volume of beads was pipetted, and an equal volume or at least 1 mL of washing solution was added to wash once. Fresh complete medium was then added to resuspend and adjust the density of the beads to 4×10^7/mL, and the beads were placed on ice for later use. At the end of drug pre-incubation, the cell culture plate was taken out. 10 μL Dynabeads anti-human CD3 was added to each well to treat the cells, and 10 μL the culture medium was added to the unstimulated group. The cell culture plate was shaken to mix well at 2500 rpm for 10 s, and then placed into a 5% CO2 incubator at 37° C. and continued to culture for 20 min.
Detection of p-SLP76 protein level: PathScan Phospho-SLP-76 (Ser376) Sandwich ELISA Kit was applied to detect p-SLP76 protein level. At the end of the Anti-CD3 beads stimulation, the cell culture plate was removed from the incubator. […] After lysis, the cell culture plate was centrifuged at 4° C., 400×g for 5 min. 25 μL of sample and 75 μL of sample diluent were added to each well, and the plate was placed in a 5% CO2 incubator at 37° C. for 2 h. The subsequent detection steps were carried out following the kit instructions, and the absorbance (OD value) of each well was read at 450 nm by a microplate reader.

HPK1 [2] = target: T1, HPK1 (Homo sapiens, UniProt Q92918); test: HPK1 kinase activity assay (ADP-Glo); details: 1 nM HPK1, 10 μM ATP, 0.1 μg/μL MBP
T1 sequence (Q92918 1-346): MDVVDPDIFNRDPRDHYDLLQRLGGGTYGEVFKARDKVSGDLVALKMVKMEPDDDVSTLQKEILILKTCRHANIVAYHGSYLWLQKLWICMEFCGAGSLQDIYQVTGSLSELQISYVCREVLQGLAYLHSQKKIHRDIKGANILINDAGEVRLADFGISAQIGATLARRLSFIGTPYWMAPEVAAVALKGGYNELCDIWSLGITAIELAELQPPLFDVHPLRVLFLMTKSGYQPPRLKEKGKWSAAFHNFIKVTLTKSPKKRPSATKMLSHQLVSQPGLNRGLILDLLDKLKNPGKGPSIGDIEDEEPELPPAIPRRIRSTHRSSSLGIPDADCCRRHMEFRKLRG
Method: Preparation of buffer: Ix reaction buffer (40 mM Tris-HCl, 20 mM MgCl2, 0.01% Brij35, 50 μM DTT, 0.1 mg/ml BSA) was prepared using sterile water, which was prepared and used on the day of the experiment.
as §1
Compound preparation and dosing: the 1000× drug stock plate was taken and melted at room temperature in the dark. Then 5× drug intermediate plate was prepared using reaction buffer and mixed well. 2 μL was transferred from the 5× drug intermediate plate into a 384-well plate, and negative control well and positive control well (in which 2 μL reaction buffer containing 0.5% DMSO was added) were set. Each point was repeated twice.
Preparation and incubation of reaction mixture: HPK1 protein was diluted to a 2.5× working solution with reaction buffer. 4 μL 2.5×HPK1 protein was added to each well containing test compound and positive control well, and 4 μL of reaction buffer without HPK1 protein was added to the negative control well. The obtained mixture was centrifuged at 1000 rpm for 1 min and then incubated in a 20° C. incubator for 15 min. A 2.5× mixed working solution of MBP protein and ATP was prepared with reaction buffer at concentrations of 0.5 μg/μL and 50 μM, respectively. 4 μL of the mixed working solution of MBP and ATP was added to each well, centrifuged at 1000 rpm for 1 min, and then incubated in a 20° C. incubator for 90 min.
ADP-Glo detection and reading plate: 10 μl ADP-Glo was added to each well of the test plate. The resulting mixture was centrifuged at 1000 rpm for 1 min and incubated in a 20° C. incubator for 60 min. Then 10 μL of the final incubation solution was transferred from the test plate to a new 384-well plate. 10 μL of kinase detection reagent was added to each well, centrifuged at 400 g for 1 min, and incubated in a 20° C. incubator for 60 min Chemiluminescent signals were read by a microplate reader.

[3] = read-out: HPK1 Kinase activity IC50, ADP-Glo
[4] = HPK1 Kinase activity IC50, ADP-Glo

Row | IC50 (HPK1 [2]; [3]) | IC50 (HPK1 [1]; p-SLP76 IC50, Jurkat) | IC50 (HPK1 [2]; [4]) | Molecule | IC50 (HPK1 [1]; read-out: p-SLP76 IC50, Jurkat)
1 | – | 474 nM | 1.35 nM | Cc1c[nH]c2ncc(-c3cc4c(c([C@@H]5CCCN5)c3)CN(C(=O)C(C)O)C4)cc12 (mixture of isomers) [Compound Z382, rac-2-hydroxy-1-(6-(3-methyl-1H-pyrrolo[2,3-b]pyridin-5-yl)-4-((R)-pyrrolidin-2-yl)isoindolin-2-yl)propan-1-one] | –
2 | – | 338 nM | 0.4 nM | Cc1c[nH]c2ncc(-c3cc4c(c([C@@H]5CCCN5)c3)CN(C(=O)[C@H](O)c3cccnc3)CC4)cc12 (single isomer, unassigned) [Compound Z287] | –
3 | – | 321 nM | 0.69 nM | Cc1c[nH]c2ncc(-c3cc4c(c([C@@H]5CCCN5)c3)CN(C(=O)[C@@H](O)c3cccnc3)CC4)cc12 (single isomer, unassigned) [Compound Z288] | –
4 | – | – | 22.7 nM | Cc1c[nH]c2ncc(-c3cc4c(c(C5COCCN5)c3)CN(C(=O)[C@](C)(O)C(F)(F)F)CC4)cc12 (single isomer, unassigned) [Compound Z309-2] | –
5 | – | 430 nM | 1.66 nM | Cc1c[nH]c2ncc(-c3cc4c(c([C@@H]5CCCN5)c3)CN(C(=O)N3CCOC(C(F)(F)F)C3)CC4)cc12 (single isomer, unassigned) [Compound Z490] | –
6 | – | 308 nM | 1.29 nM | Cc1c[nH]c2ncc(-c3cc4c(c([C@@H]5CCCN5)c3)CN(C(=O)N3CCOC(C(F)(F)F)C3)CC4)cc12 (single isomer, unassigned) [Compound Z491] | –
7 | – | 61.7 nM | 0.24 nM | O=C(N1CCc2cc(-c3cnc4[nH]cc(Cl)c4n3)cc([C@@H]3COCCN3)c2C1)N1C[C@@H]2CC[C@H]1CO2 (single isomer, unassigned) [Compound Z590] | –
8 | – | 61.6 nM | 0.25 nM | Cc1c[nH]c2ncc(-c3cc4c(c([C@@H]5COCCN5)c3)CN(C(=O)N3C[C@@H]5CC[C@H]3CO5)CC4)cc12 (single isomer, unassigned) [Compound Z644] | –
9 | – | – | 0.87 nM | CCC(=O)N1CCc2cc(-c3cnc4[nH]cc(C)c4c3)cc(C3CCCN3)c2C1 (stereo not drawn) [Compound Z35] | –
10 | – | 252 nM | 0.78 nM | Cc1c[nH]c2ncc(-c3cc4c(c([C@@H]5CCCN5)c3)CN(C(=O)C(C)(C)C)CC4)cc12 [Compound Z126] | –
11 | 2.26 nM | – | – | Cc1c[nH]c2ncc(-c3cc4c(c([C@@H]5CCCN5)c3)CN(C(=O)CC3CC3)CC4)cc12 [Compound Z220, (S)-2-cyclopropyl-1-(6-(3-methyl-1H-pyrrolo[2,3-b]pyridin-5-yl)-8-(pyrrolidin-2-yl)-3,4-dihydroisoquinolin-2(1H)-yl)ethanone] | 469 nM
12 | – | 205 nM | 0.49 nM | Cc1cc(CC(=O)N2CCc3c(cc(-c4cnc5[nH]cc(C)c5c4)cc3[C@@H]3CCCN3)C2)ccn1 [Compound Z333, (S)-2-(2-methyl-4-pyridyl)-1-[7-(3-methyl-1H-pyrrolo[2,3-b]pyridin-5-yl)-5-pyrrolidin-2-yl-3,4-dihydro-1H-isoquinolin-2-yl]ethanone] | –
13 | 0.64 nM | – | – | Cc1cn(C2CC2)nc1C(=O)N1CCc2cc(-c3cnc4[nH]cc(C)c4c3)cc([C@@H]3CCCN3)c2C1 [Compound Z342, (S)-(1-cyclopropyl-4-methyl-1H-pyrazol-3-yl)-[6-(3-methyl-1H-pyrrolo[2,3-b]pyridin-5-yl)-8-[pyrrolidin-2-yl]-3,4-dihydro-2(1H)-isoquinolin-yl]methanone] | –
14 | – | 106 nM | 0.18 nM | Cc1c[nH]c2ncc(-c3cc4c(c([C@@H]5COCCN5)c3)CN(C(=O)C(C)(C)O)CC4)cc12 [Compound Z372, (R)-2-hydroxy-2-methyl-1-[6-(3-methyl-1H-pyrrolo[2,3-b]pyridin-5-yl)-8-[morphin-3-yl]-3,4-dihydroisoquinolin-2(1H)-yl]propan-1-one] | –
15 | – | 258 nM | 0.59 nM | Cc1c[nH]c2ncc(-c3cc4c(c([C@@H]5COCCN5)c3)CN(C(=O)C3CCOCC3)CC4)cc12 [Compound Z375] | –
16 | – | 211 nM | 0.33 nM | CCNC(=O)N1CCc2cc(-c3cnc4[nH]cc(C)c4c3)cc([C@@H]3COCCN3)c2C1 [Compound Z376, (R)—N-ethyl-6-(3-methyl-1H-pyrrolo[2,3-b]pyridin-5-yl)-8-(morpholin-3-yl)-3,4-dihydroisoquinoline-2(1H)-carboxamide formate] | –
17 | – | – | 12.4 nM | Cc1c[nH]c2ncc(-c3cc4c(c([C@H]5COCCN5)c3)CCN(C(=O)C3CCOCC3)C4)cc12 [Compound Z449, (S)-(7-(3-methyl-1H-pyrrolo[2,3-b]pyridin-5-yl)-5-(morpholin-3-yl)-3,4-dihydroisoquinolin-2(1H)-yl)(tetrahydro-2H-pyran-4-yl)methanone] | –
18 | – | 163 nM | – | Cc1cccnc1C#Cc1c[nH]c2ncc(-c3cc4c(c([C@@H]5COCCN5)c3)CN(C(=O)C(C)(C)O)CC4)cc12 [Compound Z578, (R)-2-hydroxy-2-methyl-1-(6-(3-50 ((3-methylpyridin-2-yl)ethynyl)-1H-pyrrolo[2,3-b]pyridin-5-yl)-8-(morpholin-3-yl)-3,4-dihydroisoquinolin-2(1H)-yl)propan-1-one] | –
19 | – | 276 nM | – | Cc1c[nH]c2ncc(-c3cc4c(c([C@@H]5COCCN5)c3)CN(C(=O)N3CC5(COC5)C3)CC4)cc12 [Compound Z579, (R)-(6-(3-methyl-1H-pyrrolo[2,3-b]pyridin-5-yl)-8-(morpholin-3-yl)-3,4-dihydroisoquinolin-2(1H)-yl)(2-oxa-6-oxaspiro[3.3]heptan-6-yl)methanone] | –
20 | – | 160 nM | – | COc1c[nH]c2ncc(-c3cc4c(c([C@@H]5COCCN5)c3)CN(C(=O)N3C5CCC3COC5)CC4)cc12 [Compound Z582] | –
21 | – | 2670 nM | – | N#Cc1c[nH]c2ncc(-c3cc4c(c([C@@H]5COCCN5)c3)CN(C(=O)N3C5CCC3COC5)CC4)nc12 [Compound Z583, 2-(2-(3-oxa-8-azabicyclo[3.2.1]octane-8-carbonyl)-8-((R)-morpholin-3-yl)-1,2,3,4-tetrahydroisoquinolin-6-yl)-5H-pyrrolo[2,3-b]pyrazine-7-carbonitrile] | –
22 | – | 127 nM | – | O=C(N1CCc2cc(-c3cnc4[nH]cc(C(F)(F)F)c4n3)cc([C@@H]3COCCN3)c2C1)N1C2CCC1COC2 [Compound Z584, (3-oxa-8-azabicyclo[3.2.1]octan-8-yl)(8-((R)-morpholin-3-yl)-6-(7-(trifluoromethyl)-5H-pyrrolo[2,3-b]pyrazin-2-yl)-3,4-dihydroisoquinolin-2(1H)-yl)methanone] | –
23 | – | 246 nM | – | COC1CCN(C(=O)N2CCc3cc(-c4cnc5[nH]cc(Cl)c5c4)cc([C@@H]4COCCN4)c3C2)CC1 [Compound Z589, (R)-(6-(3-chloro-1H-pyrrolo[2,3-b]pyridin-5-yl)-8-(morpholin-3-yl)-3,4-dihydroisoquinolin-2(1H)-yl)(4-methoxypiperidin-1-yl)methanone] | –
24 | – | 215 nM | – | COc1c[nH]c2ncc(-c3cc4c(c([C@@H]5COCCN5)c3)CN(C(=O)N3CC5CCC(C3)O5)CC4)cc12 [Compound Z592] | –
25 | – | 317 nM | – | CC(=O)c1c[nH]c2ncc(-c3cc4c(c([C@@H]5COCCN5)c3)CN(C(=O)C(C)(C)O)CC4)cc12 [Compound Z593, (R)-1-(6-(3-acetyl-1H-pyrrolo[2,3-b]pyridin-5-yl)-8-(morpholin-3-yl)-3,4-dihydroisoquinolin-2(1H)-yl)-2-hydroxy-2-methylpropan-1-one] | –
26 | – | 825 nM | – | C#Cc1c[nH]c2ncc(-c3cc4c(c([C@@H]5COCCN5)c3)CN(C(=O)C(C)(C)O)CC4)cc12 [Compound Z594, (R)-1-(6-(3-ethynyl-1H-pyrrolo[2,3-b]pyridin-5-yl)-8-(morpholin-3-yl)-3,4-dihydroisoquinolin-2(1H)-yl)-2-hydroxy-2-methylpropan-1-one] | –
27 | – | 184 nM | – | C[C@@H]1CN(C(=O)N2CCc3cc(-c4cnc5[nH]cc(Cl)c5c4)cc([C@@H]4COCCN4)c3C2)C[C@@H](C)O1 [Compound Z599, (6-(3-chloro-1H-pyrrolo[2,3-b]pyridin-5-yl)-8-((R)-morpholin-3-yl)-3,4-dihydroisoquinolin-2(1H)-yl)((2R,6R)-2,6-dimethylmorpholinyl)methanone] | –
28 | – | 136 nM | – | C[C@H]1COCCN1C(=O)N1CCc2cc(-c3cnc4[nH]cc(Cl)c4c3)cc([C@@H]3COCCN3)c2C1 [Compound Z613] | –
29 | – | 247 nM | – | Cc1c[nH]c2ncc(-c3cc4c(c([C@@H]5COCCN5)c3)CN(C(=O)[C@H]3CCOC3)CC4)nc12 [Compound Z630, (6-(7-methyl-5H-pyrrolo[2,3-b]pyrazin-2-yl)-8-((R)-morpholin-3-yl)-3,4-dihydroisoquinolin-2(1H)-yl)((S)-tetrahydrofuran-3-yl)methanone] | –
30 | – | 240 nM | – | O=C([C@H]1CCOC1)N1CCc2cc(-c3cnc4[nH]cc(Cl)c4c3)cc([C@@H]3COCCN3)c2C1 [Compound Z631, (6-(3-chloro-1H-pyrrolo[2,3-b]pyridin-5-yl)-8-((R)-morpholin-3-yl)-3,4-dihydroisoquinolin-2(1H)-yl)((S)-tetrahydrofuran-3-yl)methanone] | –

Row | Molecule | IC50 (HPK1 [2]; [3]) | IC50 (HPK1 [1]; p-SLP76 IC50, Jurkat) | IC50 (HPK1 [2]; [4]) | IC50 (HPK1 [1]; read-out: p-SLP76 IC50, Jurkat)
31 | 5-(8-(4-fluoropyrrolidin-2-yl)isochromen-6-yl)-3-methyl-1H-pyrrolo[2,3-b]pyridine [Compound Z367-1] | 1.44 nM | – | – | 999 nM
